Measurements reported in paper PMC12040169 (PLOS Biology, 2025).

assay: in vitro; conditions: human, hela cells, % viability

Compound | viability at 28.5 h, 10 µM [%]
COc1ccc(OCC(F)(F)F)c(C(=O)N2CCSCC2)c1 [CBK005950] | 83.7
CCN(CC)CC(O)Cn1ccc(-c2cccs2)n1 (stereo not shown) [CBK005967] | 88.7
Cn1c2c(ccc1=O)CCCCC2 [CBK005987] | 92
O=c1cc(O)c2c(=O)n(-c3ccccc3)c(-c3ccccc3)cc2o1 [CBK006116] | 89.1
Nc1nonc1-c1cccnc1 [CBK006120] | 105
CC(C)(C)SCC(=O)c1ccc2c(c1)CCC(=O)N2 [CBK006168] | 104
CC1CCN(C(=S)Nc2ccccc2)CC(C)(C)C1 (stereo not shown) [CBK006185] | 93.9
Clc1cc(-c2cnc3ccccc3n2)c(Cl)s1 [CBK006186] | 85.4
O=C1COCC(=O)N1c1ccccn1 [CBK006233] | 89.2
OC1(C(F)(F)F)C=C(c2cccs2)ON1 (stereo not shown) [CBK006243] | 89
Nc1ccccc1Sc1nccc(C(F)(F)F)n1 [CBK006263] | 94.5
CCOC(=O)N/N=C1\CCSc2sccc21 [CBK006300] | 110
FC(F)(F)c1nnc(-c2cc3sccc3s2)o1 [CBK006303] | 96.4
CCCc1c(C(=O)NC2CC2)cnn1-c1ccc(Cl)cc1 [CBK006334] | 112
OCC12COC3c4ccccc4C(OC1)N32 (stereo not shown) [CBK006347] | 89.5
COC(=O)c1sc(N2CCOCC2)c(C#N)c1N [CBK006430] | 101
CNC(=S)N(CCS(=O)(=O)c1ccc(Cl)cc1)Cc1cccs1 [CBK006431] | 97.5
O=c1ccccn1COCc1ccccc1 [CBK006438] | 103
Cc1c(C(=O)N2CCCCC2)sc2nc(C(F)(F)F)nn12 [CBK006455] | 105
Cc1c2c(nn1C)CSc1ccccc1C2=O [CBK006517] | 92.8
S=C1NC2(CCCCC2)NC12CCCCC2 [CBK006533] | 98.5
COc1ccc(C)cc1NC(=O)Nc1nc(C)cs1 [CBK006565] | 83.3
Cc1ccc2c(c1)N(CCO)C(C)(C)CC2C (stereo not shown) [CBK006567] | 92.1
CNC(=O)C1/C(=N\O)c2ccccc2N1C(C)=O (stereo not shown) [CBK006569] | 114
COc1ccc(-c2cc(=O)n3cc[nH]c3n2)cc1 [CBK006659] | 87.6

Compound | viability at 28.5 h, 10 µM [%]
CCCCC(O)C[N+]1(C)CCC(c2ccccc2)CC1 (stereo not shown) [CBK006696I] | 101
CC(C)(C)S(=O)(=O)c1ccc2nc3c(n2c1)CCCC3 [CBK006753] | 94.9
N/C(=N\c1nonc1N)NC(=O)c1ccccc1 [CBK006756] | 71.5
N/C(CSc1cccc2c1CCCC2)=N\O [CBK006787C] | 101
Cn1c(C(C)(C)C)cs/c1=N\NS(=O)(=O)c1ccccc1 [CBK006830B] | 110
CC(C)(C)c1cc(NC(=O)C(C)(C)S(=O)(=O)c2ccc(C(F)(F)F)cn2)no1 [CBK006849] | 113
COc1ccc(C(=O)n2nc(SC)nc2N)cc1 [CBK006853] | 100
CCCCNC(=O)N(O)C1N(C)C(=S)SC1(C)C (stereo not shown) [CBK006880] | 91.2
Cc1cc(N(C)C)nc(SCc2n[nH]c(=S)o2)n1 [CBK006887] | 99.8
CC(C)(C)C(=O)CSc1nnc(-c2ccccn2)s1 [CBK006894] | 91.9
CC1SC(c2cc3ccccc3o2)N(c2ccc(F)cc2F)C1=O (stereo not shown) [CBK006917] | 107
CCOC(=O)CSC/C(=N/Nc1ccccc1)c1cccs1 [CBK006956] | 102
CNC(=O)Nc1cc(C(O)(C(F)(F)F)C(F)(F)F)ccc1C [CBK006970] | 113
CC1(C)CCN(Cc2ccccc2)C1CC#N (stereo not shown) [CBK006978C] | 102
OCCCc1[nH]nc(-c2ccc(Cl)cc2)c1Br [CBK006993] | 59.2
CCOC(=O)CSc1nc(-c2ccc(C)cc2)cs1 [CBK007039] | 90.4
CCCCCOc1ccc(-c2ccc(Cl)nn2)cc1 [CBK007044] | 83.7
COC(=O)CSc1nnc(CSc2cc(C)nc(N3CCOCC3)n2)o1 [CBK007059] | 96.1
C/C(=N/NC(N)=S)c1ccccc1OCC(=O)O [CBK007123] | 97.9
O=C1C=C(N2CCC(CCC3CCN(C4=CC(=O)CCC4)CC3)CC2)CCC1 [CBK007126] | 105
COC(=O)/N=C1/Nc2ccccc2CN1CC(N)=O [CBK007160] | 91.9
COc1ccc(-c2cc(NC(=S)NC(=O)/C=C/c3ccccc3)[nH]n2)cc1 [CBK007190] | 97.9
O=C(c1c[nH]c2ccccc12)C(F)(F)C(F)(F)F [CBK007222] | 101
CS(=O)(=O)c1nsc(Cl)n1 [CBK007229] | 87.9
FC(F)(F)c1ccc2[nH]c(Cn3cncn3)nc2c1 [CBK007335] | 85.3

Compound | viability at 28.5 h, 10 µM [%]
CC1(C)CC(=O)c2cnc3ncnn3c2C1 [CBK007345] | 110
CN(C)c1nc(N2CCN(c3ccc(F)cc3)CC2)cc(C(F)(F)F)n1 [CBK007432] | 91.1
COc1ccc(/C=N/NC(=O)C2CCN(c3ncc(C(F)(F)F)cc3Cl)CC2)cc1 [CBK007433] | 102
O=C(Cc1ncc(C(F)(F)F)cc1Cl)NO [CBK007437] | 85
COc1ccc(-n2nc(N)c3c(=O)oc(N(C)C)nc32)cc1 [CBK007445] | 89.9
CN(C)c1nc(N2CCOCC2)c(C#N)c(=O)o1 [CBK007447] | 116
O=C1NC2(CCSCC2)Oc2ccccc21 [CBK007488] | 79.3
Cc1cc(CC(=O)N/N=C/c2ccccc2)[nH]n1 [CBK007500] | 99.8
Cc1nn2c(c1-c1ccno1)CCCCC2 [CBK007505] | 97.6
CSc1ncnc2c1CC=N2 [CBK007532] | 96.4
O=C(Nc1nc2ccccc2s1)NC1CC1 [CBK007542] | 102
CC(C)C(=O)N(C)c1nnc(-c2cccnc2)s1 [CBK007554] | 114
COC(=O)c1c(C(C)(C)C)c(O)c2ccoc2c1OC [CBK007577] | 94.2
Oc1cccc2c1CC(NCC(F)(F)C(F)(F)F)CC2 (stereo not shown) [CBK007596] | 96.5
O=C(N[C@H]1COC(=O)N1)OCc1ccccc1 [CBK007606] | 114
CCCCCC(=O)N1CCc2cc(N3CC(CNC(C)=O)OC3=O)ccc21 (stereo not shown) [CBK007646] | 92.5
COc1ccc(C2Oc3cccnc3N(CCCN(C)C)C2=O)cc1 (stereo not shown) [CBK007694] | 101
Cc1c(C#N)c(=O)oc2ccccc12 [CBK007705] | 95.2
CC(C)(C)OC(=O)N1Cc2c(-c3noc(C4CC4)n3)ncn2-c2ccc(Cl)cc21 [CBK007792] | 90.2
CCCCCC(=O)N[C@H]1CCC[C@H]1C(=O)O [CBK007807] | 118
O=C1c2ccccc2C(=O)N1CCc1nnn[nH]1 [CBK007829] | 111
C/C(=N\O)c1ccc(S(N)(=O)=O)cc1 [CBK007871] | 100
NC(=O)CCCN1CC[C@H]2c3c(cccc3C(N)=O)CC[C@H]21 [CBK007883] | 93.3
CCOc1n[s+]([O-])nc1Nc1cc(Cl)cc(Cl)c1 (stereo not shown) [CBK007897] | 101
OC1(c2nnsc2-c2ccccc2)CCCC1 [CBK007956] | 90.2

Compound | viability at 28.5 h, 10 µM [%]
Cc1c(NC(=S)NCCCN2CCOCC2)c(=O)n(-c2ccccc2)n1C [CBK008032] | 90.7
O=C(NCc1cccs1)OCc1ccccc1 [CBK008074] | 96.6
CN(C(=O)OC(C)(C)C)C1CN(C(c2ccccc2)c2ccccc2)C1 [CBK008111] | 89.8
O=C1C=C(O)CC(CCc2ccc(F)cc2)(CCc2ccc(F)cc2)O1 [CBK008148] | 92.7
N#CC(N)c1c(Cl)cccc1Cl (stereo not shown) [CBK008288C] | 103
CCCOc1ccc(Cc2nc(N(C)C)cc(N(C)C)n2)cc1 [CBK008318] | 102
O=C(c1c[nH]c(-c2ncn[nH]2)c1)c1ccc(Cl)cc1Cl [CBK008334] | 93.4
Sc1nccn1Cc1cccs1 [CBK008454] | 92
N#CCSC1=CC(=O)CC(c2ccccc2)S1 (stereo not shown) [CBK008460] | 92.1
COCc1cc(=O)oc2cc(NS(C)(=O)=O)ccc12 [CBK008516] | 119
S=C(NCc1cccs1)NC1CC1 [CBK008520] | 86.4
CC(C)(C)c1ccc(OCc2nc(N)c3c(N)n[nH]c3n2)cc1 [CBK008565] | 90.8
C=CCOCc1cc(O)n2nc(SC)c(C(N)=O)c2n1 [CBK008592] | 94.6
COc1ccc(OC)c(S(=O)(=O)N2CCN(c3ncccn3)CC2)c1 [CBK008662] | 92.7
CC(C)(C)c1ccc(C(=O)N2CC(C(=O)O)C2)cc1 [CBK008670] | 101
NC(Cc1ccc(Cl)cc1)C(=O)N(CCc1cc(C(F)(F)F)cc(C(F)(F)F)c1)c1cccc2ccccc12 (stereo not shown) [CBK008674T] | 92.5
CCN(CC)CCOC(=O)c1oc2c3c(ccc2c1C)OCCO3 [CBK008676C] | 115
CCCCc1nnc(CC(C)C)o1 [CBK008679] | 106
CCCCn1cc(CN(C)C)c2c(C)ccnc21 [CBK008697] | 102
CCOC(=O)C1=C(N)OC2=C(C(=O)CC(C)(C)C2)C1c1cc(OCC)ccc1OCC (stereo not shown) [CBK008699] | 107
Cc1nnc(O)c2c(C)n(-c3ccc(Br)cc3)nc12 [CBK008726] | 86.2
CC1(C)O[C@@H]2O[C@@H](C(O)CNC(=O)c3ccccc3)[C@@H](O)[C@@H]2O1 (stereo partly shown) [CBK008736] | 87
Cc1ccc(C2(C(=O)N3CCCC3)CCN(S(=O)(=O)c3ccc(C)cc3)CC2)cc1 [CBK008752] | 102
COc1ccc(C2c3ccccc3C[N+]3(C)CCCN23)cc1 (stereo not shown) [CBK008769] | 95.7
Cc1cc(C)[n+](-c2nccs2)c(C)c1 [CBK008782G] | 103
